Test results taken from patent publication US20060062758A1, “Tight junction modulator peptide PN159 for enhanced mucosal delivery of therapeutic compounds” (Nastech Pharmaceutical Comapny Inc., priority 2004, published 2006).

What was measured:
[1] = Intranasal PYY plasma pharmacokinetics in rabbits; type: in vivo, New Zealand White rabbits; conditions: for plasma concentration of PYY: average of 4 animals; for Relative AUC last / Relative Cmax / AUCINF, Mean / AUClast, Mean: plasma PYY; for Relative AUC last / Relative Cmax: compared with Group 2 (no enhancer) formulation
Experimental: 20 male New Zealand White rabbits age 3-6 months and weighing 2.1-3.0 kg were randomly assigned into one of 5 treatment groups with four animals per group. Test animals were dosed at 15 μl/kg and intranasally via pipette. Table 4 below indicates the composition of five different dose groups.
For dosing group 1 (see Table 1) a clinical formulation of PYY including small molecule permeation enhancers was used. The small molecule enhancers in these studies included methyl-βcyclodextrin, phosphatidylcholine didecanoyl (DDPC), and/or EDTA. Dosing group 2 received PYY dissolved in phosphate buffered saline (PBS).
Serial blood samples (about 2 ml each) were collected by direct venipuncture from a marginal ear vein into blood collection tubes containing EDTA as an anticoagulant. Blood samples were collected at 0, 2.5, 5, 10, 15, 30, 45, 60, and 120 minutes post-dosing. After collection of the blood, the tubes were gently rocked several times for anti-coagulation, and then 50 μl aprotinin solution was added. The blood was centrifuged at approximately 1,600×g for 15 minutes at approximately 4° C., and plasma samples were dispensed into duplicate aliquots and stored frozen at approximately −70° C.

[2] = test system: EpiAirway™ Cell Membrane (mucosal epithelial cell layer); assay: LDH assay (cytotoxicity), in vitro epithelial tissue model; type: cell-based
Experimental: Repeated freeze-thaw cycles are to be avoided.
The amount of cell death was assayed by measuring the loss of lactate dehydrogenase (LDH) from the cells using a CytoTox 96 Cytoxicity Assay Kit (Promega Corp., Madison, Wis.). Fifty microliters of sample was loaded into a 96-well assay plates. Fresh, cell-free culture medium was used as a blank. 50 μl of substrate solution was added to each well and the plates incubated for 30 minutes at room temperature in the dark. Following incubation, 50 μl of stop solution was added to each well and the plates read on an optical density plate reader at 490 nm.
(§1) The formulation pH was fixed at 4.5.

[3] = test system: EpiAirway™ Cell Membrane (mucosal epithelial cell layer); assay: Transepithelial electrical resistance (TER), EpiAirway in vitro epithelial tissue model; type: cell-based; conditions: for TER(x)/TER(159) +/− SEM*: mean values from multiple repeats
Excerpt: One “kit” consists of 24 units.
A. Respiratory airway epithelial cells form tight junctions in vivo as well as in vitro, and thereby restrict the flow of solutes across the tissue. These junctions confer a transepithelial resistance of several hundred ohms×cm^2 in excised airway tissues. In the MatTek EpiAirway™ units, the transepithelial electrical resistance (TER) is reported by the manufacturer to be routinely around 1000 ohms×cm^2. […] The porous membrane-bottomed units without cells, conversely, provide only minimal transmembrane resistance (approximately 5-20 ohms×cm^2).
B. Accurate determinations of TER require that the electrodes of the ohmmeter be positioned over a significant surface area above and below the membrane, and that the distance of the electrodes from the membrane be reproducibly controlled. The method for TER determination recommended by MatTek and employed for all experiments herein employs an “EVOM”™ epithelial voltohmmeter and an “ENDOHM”™ tissue resistance measurement chamber from World Precision Instruments, Inc., Sarasota, Fla.
D. Determinations of TER are made with 1.5 mL of PBS in the chamber and 350 μL of PBS in the membrane-bottomed unit being measured. The top electrode is adjusted to a position just above the membrane of a unit containing no cells (but containing 350 μL of PBS) and then fixed to ensure reproducible positioning. The resistance of a cell-free unit is typically 5-20 ohms×cm^2 (“background resistance”).
G. The unit is gently blotted free of excess PBS on its exterior surface only before being placed into the chamber (containing a fresh 1.5 mL aliquot of PBS). An aliquot of 350 μL PBS is added to the unit before the top electrode is placed on the chamber and the TER is read on the EVOM meter.
I. The units are read in the following sequence: all sham-treated controls, followed by all formulation-treated samples, followed by a second TER reading of each of the sham-treated controls. All TER values are reported as a function of the surface area of the tissue.
TER was calculated as: TER=(R1−Rb)×A Where R1 is resistance of the insert with a membrane, Rb is the resistance of the blank insert, and A is the area of the membrane (0.6 cm^2). The effect of pharmaceutical formulations comprising intranasal delivery-enhancing agents, for example, permeabilizing peptides as measured by TER across the EpiAirway™ Cell Membrane (mucosal epithelial cell layer). Permeabilizing peptides are applied to the EpiAirway™ Cell Membrane at a concentration of 1.0 mM. A decrease in TER value relative to the control value (control=approximately 1000 ohms-cm^2; normalized to 100.) indicates a decrease in cell membrane resistance and an increase in mucosal epithelial cell permeability.
as §1

[4] = intranasal PYY 205 μg/kg in PBS with 25 μM PN159 (Group 3)
[5] = intranasal PYY 205 μg/kg in PBS with 50 μM PN159 (Group 4)
[6] = intranasal PYY 205 μg/kg in PBS with 100 μM PN159 (Group 5)

CC(C)C[C@H](NC(=O)[C@H](C)NC(=O)[C@H](CCCCN)NC(=O)[C@H](CC(C)C)NC(=O)[C@H](C)NC(=O)[C@H](CC(C)C)NC(=O)[C@H](CCCCN)NC(=O)[C@H](CC(C)C)NC(=O)[C@H](C)NC(=O)[C@H](CC(C)C)NC(=O)[C@@H](N)CCCCN)C(=O)N[C@@H](CCCCN)C(=O)N[C@@H](C)C(=O)N[C@@H](C)C(=O)N[C@@H](CC(C)C)C(=O)N[C@@H](CCCCN)C(=O)N[C@@H](CC(C)C)C(=O)N[C@@H](C)C(N)=O [PN159]
plasma concentration of PYY ([1]; 0 min post-dosing, intranasal PYY 205 μg/kg in PBS with 25 μM PN159): 228.675 | plasma concentration of PYY ([1]; 0 min post-dosing, intranasal PYY 205 μg/kg in PBS with 50 μM PN159): 424.4 | plasma concentration of PYY ([1]; 0 min post-dosing, intranasal PYY 205 μg/kg in PBS with 100 μM PN159): 294.225 | plasma concentration of PYY ([1]; 2.5 min post-dosing, intranasal PYY 205 μg/kg in PBS with 25 μM PN159): 526.375 | plasma concentration of PYY ([1]; 2.5 min post-dosing, intranasal PYY 205 μg/kg in PBS with 50 μM PN159): 749.975 | plasma concentration of PYY ([1]; 2.5 min post-dosing, intranasal PYY 205 μg/kg in PBS with 100 μM PN159): 1748.225 | plasma concentration of PYY ([1]; 5 min post-dosing, intranasal PYY 205 μg/kg in PBS with 25 μM PN159): 1430.15 | plasma concentration of PYY ([1]; 5 min post-dosing, intranasal PYY 205 μg/kg in PBS with 50 μM PN159): 1293.4 | plasma concentration of PYY ([1]; 5 min post-dosing, intranasal PYY 205 μg/kg in PBS with 100 μM PN159): 3088.2 | plasma concentration of PYY ([1]; 10 min post-dosing, intranasal PYY 205 μg/kg in PBS with 25 μM PN159): 6521.7 | plasma concentration of PYY ([1]; 10 min post-dosing, intranasal PYY 205 μg/kg in PBS with 50 μM PN159): 12517.2 | plasma concentration of PYY ([1]; 10 min post-dosing, intranasal PYY 205 μg/kg in PBS with 100 μM PN159): 14486.6 | plasma concentration of PYY ([1]; 15 min post-dosing, intranasal PYY 205 μg/kg in PBS with 25 μM PN159): 12563.075 | plasma concentration of PYY ([1]; 15 min post-dosing, intranasal PYY 205 μg/kg in PBS with 50 μM PN159): 34455.3 | plasma concentration of PYY ([1]; 15 min post-dosing, intranasal PYY 205 μg/kg in PBS with 100 μM PN159): 20882.725 | plasma concentration of PYY ([1]; 30 min post-dosing, intranasal PYY 205 μg/kg in PBS with 25 μM PN159): 15222.6 | plasma concentration of PYY ([1]; 30 min post-dosing, intranasal PYY 205 μg/kg in PBS with 50 μM PN159): 35294.375 | plasma concentration of PYY ([1]; 30 min post-dosing, intranasal PYY 205 μg/kg in PBS with 100 μM PN159): 25470.475 | plasma concentration of PYY ([1]; 45 min post-dosing, intranasal PYY 205 μg/kg in PBS with 25 μM PN159): 9081.125 | plasma concentration of PYY ([1]; 45 min post-dosing, intranasal PYY 205 μg/kg in PBS with 50 μM PN159): 21582.225 | plasma concentration of PYY ([1]; 45 min post-dosing, intranasal PYY 205 μg/kg in PBS with 100 μM PN159): 16499.55 | plasma concentration of PYY ([1]; 60 min post-dosing, intranasal PYY 205 μg/kg in PBS with 25 μM PN159): 4843.15 | plasma concentration of PYY ([1]; 60 min post-dosing, intranasal PYY 205 μg/kg in PBS with 50 μM PN159): 9461.925 | plasma concentration of PYY ([1]; 60 min post-dosing, intranasal PYY 205 μg/kg in PBS with 100 μM PN159): 10676.625 | plasma concentration of PYY ([1]; 120 min post-dosing, intranasal PYY 205 μg/kg in PBS with 25 μM PN159): 1224.2 | plasma concentration of PYY ([1]; 120 min post-dosing, intranasal PYY 205 μg/kg in PBS with 50 μM PN159): 2337.775 | plasma concentration of PYY ([1]; 120 min post-dosing, intranasal PYY 205 μg/kg in PBS with 100 μM PN159): 1891.275 | Relative AUC last ([1]; PN159, 25 μm (Group 3)): 21x | Relative Cmax ([1]; PN159, 25 μm (Group 3)): 30x | Relative AUC last ([1]; PN159, 50 μm (Group 4)): 46x | Relative Cmax ([1]; PN159, 50 μm (Group 4)): 79x | Relative AUC last ([1]; PN159, 100 μm (Group 5)): 38x | Relative Cmax ([1]; PN159, 100 μm (Group 5)): 54x | AUCINF, Mean [1, 4]: 796354.7 pg·min/mL | AUClast, Mean [1, 4]: 748104.1 pg·min/mL | AUCINF, Mean [1, 5]: 1787348 pg·min/mL | AUClast, Mean [1, 5]: 1692499 pg·min/mL | AUCINF, Mean [1, 6]: 1518949 pg·min/mL | AUClast, Mean [1, 6]: 1384241 pg·min/mL | cytotoxicity (LDH) ([2]; Example 2, PTH study, PN159 25-100 μM): no significant cytotoxicity | cytotoxicity as measured by LDH ([2]; in the presence of PN159 and galantamine lactate): low | TER reduction (in words) ([3]; Example 2, PTH formulation study, applied to apical side): Higher TER reduction was observed with increasing PN159 concentration | TER(x)/TER(159) +/− SEM* ([3]; Example 7, length changes, relative to PN159): 1.00 +/− 0.14 | TER(x)/TER(159) +/− SEM ([3]; Table 6, D-amino acid substitutions, relative to PN159): 1.00 +/− 0.14 | Relative TER Decrease ([3]; Table 8, amino acid substitutions, relative to PN159): 1.0 | TER(x)/TER(159) +/− SEM* ([3]; Table 9, hydrophobic faces, relative to PN159): 1.00 +/− 0.14
